Common to all, as to assay type: cell-based
One assay relates to PDGFRβ NIH-3T3 cells. Description: PDGF ligand-dependent cell proliferation. To be noted: Mus musculus, NIH3T3; NIH-3T3 expressing human PDGFRβ, PDGF BB 50 ng/ml, 72 hours, MTS. Here is the method: Measurement of in vivo inhibition on receptor ligand-dependent cell proliferation: PDGF dependent cell proliferation:
NIH-3T3 mouse fibroblasts cell line engineered to stably express human PDGFRβ was constructed and used to evaluate PDGF dependent cell proliferation. PDGFRβ NIH-3T3 cells were plated into 96-well plates at 5,000 per well and incubated with serum-free medium for 24 hours. Compounds and PDGF BB (50 ng/ml) were added and incubated for 72 hours in serum-free medium. The effects on proliferation were determined by addition of MTS reagent (Promega) according to the instruction, incubation for 2 hours at 37° C. in CO2 incubator, and record the absorbance at 490 nm using an ELISA plate reader.

The subject of another assay is HCT-8. In words: Tumor cell proliferation (MTS), HCT-8. Particulars: Homo sapiens, HCT-8, 72 hours. Here is the method: (§1) Measurement of in vivo cell proliferation:
(§2) Tumor cells were trypsinized and plated into 96-well plates at 3,000 per well and incubated in complete medium with 10% FBS for 24 hours. Compounds were added over a final concentration range of 100 μmol/L to 100 nmol/L in 0.1% DMSO and incubated for 72 hours in complete medium. The effects on proliferation were determined by addition of MTS reagent (Promega) according to the instruction, incubation for 2 hours at 37° C. in CO2 incubator, and record the absorbance at 490 nm using an ELISA plate reader.

For a further assay, the system named is Bel-7402. Description: Tumor cell proliferation (MTS), Bel-7402. Particulars: Homo sapiens, Bel-7402, 72 hours. Here is the method:
as §1, §2

Another assay addresses T1, HDAC7 (Homo sapiens, UniProt Q8WUI4).
T1 construct: endogenous in cells; host or cells: HeLa
T1 sequence (Q8WUI4 1-952): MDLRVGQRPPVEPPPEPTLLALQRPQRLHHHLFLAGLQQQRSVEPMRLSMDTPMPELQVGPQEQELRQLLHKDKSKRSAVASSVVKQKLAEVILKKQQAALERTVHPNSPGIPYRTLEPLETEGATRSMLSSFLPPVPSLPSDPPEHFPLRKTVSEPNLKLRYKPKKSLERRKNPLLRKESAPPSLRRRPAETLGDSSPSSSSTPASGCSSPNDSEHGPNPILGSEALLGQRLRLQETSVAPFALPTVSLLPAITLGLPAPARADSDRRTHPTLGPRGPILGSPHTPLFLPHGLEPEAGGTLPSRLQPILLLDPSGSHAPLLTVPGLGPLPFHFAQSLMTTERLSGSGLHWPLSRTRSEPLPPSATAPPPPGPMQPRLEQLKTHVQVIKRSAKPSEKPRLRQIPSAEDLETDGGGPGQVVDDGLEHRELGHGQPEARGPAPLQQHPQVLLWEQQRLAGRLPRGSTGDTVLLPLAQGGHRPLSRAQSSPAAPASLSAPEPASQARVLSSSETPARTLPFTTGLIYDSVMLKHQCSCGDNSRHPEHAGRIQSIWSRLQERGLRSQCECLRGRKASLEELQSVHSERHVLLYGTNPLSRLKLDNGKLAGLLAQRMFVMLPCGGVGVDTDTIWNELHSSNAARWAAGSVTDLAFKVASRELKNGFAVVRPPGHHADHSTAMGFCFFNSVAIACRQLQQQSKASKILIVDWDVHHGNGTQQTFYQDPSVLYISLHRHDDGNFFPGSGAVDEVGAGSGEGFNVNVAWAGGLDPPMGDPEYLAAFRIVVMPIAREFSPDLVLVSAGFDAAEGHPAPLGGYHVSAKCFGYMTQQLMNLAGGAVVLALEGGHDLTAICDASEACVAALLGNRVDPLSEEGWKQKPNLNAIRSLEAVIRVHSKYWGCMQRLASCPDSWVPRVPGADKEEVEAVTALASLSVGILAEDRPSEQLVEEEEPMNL
In words: Nur77 reporter assay in HeLa cells. Particulars: for EC50: 24 hours; for HDAC7 (Nur77 reporter assay) % Max Resp of CS055 at 3 μM: relative to CS055 at 3 μM. Here is the method: (§3) HDAC subtype selectivity inhibition assay of tested compounds was carried out by several reporter gene assays experiments. Briefly, HeLa cells were seeded in 96-well plates the day before transfection to give a confluence of 50-80%. Cells were transfected with one of reporter gene plasmid containing a promoter sequence or response element upstream of a luciferase gene construct using FuGene6 transfection reagent according to the manufacturer's instruction (Roche). The promoters or response elements including p21-promoter, gdf11-promoter, MEF-binding element (MEF2), Nur77-promoter were fused upstream to the luciferase gene reporter construct. For normalizing the transfection efficiency, a GFP expression plasmid was cotransfected. Cells were allowed to express protein for 24 hours followed by addition of individual compounds or the vehicle (DMSO). 24 hours later the cells were harvested, and the luciferase assay and GFP assay were performed using corresponding assay kits according to the manufacturer's instructions (Promega).
Background: A reporter such as luciferase makes a cellular process visible.

The subject of the next assay is HUVEC cells. Description: VEGF ligand-dependent cell proliferation. Particulars: Homo sapiens, VEGF 165 50 ng/ml, 72 hours, MTS. Here is the method: VEGF dependent cell proliferation:
HUVEC cells were plated into 96-well plates at 6,000 per well and incubated with serum-free medium for 2 hours. Compounds and VEGF 165 (50 ng/ml) were added and incubated for 72 hours in serum-free medium. The effects on proliferation were determined by addition of MTS reagent (Promega) according to the instruction, incubation for 2 hours at 37° C. in CO2 incubator, and record the absorbance at 490 nm using an ELISA plate reader.

Another assay concerns MDA-MB-231. Description: Tumor cell proliferation (MTS), MDA-MB-231. Particulars: Homo sapiens, MDA-MB-231, 72 hours. Here is the method: as §1, §2
The subject of the next assay is Jurkat. In words: Tumor cell proliferation (MTS), Jurkat. To be noted: Homo sapiens, 72 hours. Here is the method: as §1, §2
A further assay concerns the target T2, HDAC3 (Homo sapiens, UniProt O15379).
T2 construct: endogenous in cells; host or cells: HeLa
In words: GDF11 reporter assay in HeLa cells. Particulars: for EC50: 24 hours; for HDAC3 (GDF11 reporter assay) % Max Resp of CS055 at 3 μM: relative to CS055 at 3 μM. Here is the method:
as §3

Another assay deals with HeLa. In words: Tumor cell proliferation (MTS), HeLa. Particulars: Homo sapiens, 72 hours. Here is the method: as §1, §2

T2 sequence (O15379 whole entry): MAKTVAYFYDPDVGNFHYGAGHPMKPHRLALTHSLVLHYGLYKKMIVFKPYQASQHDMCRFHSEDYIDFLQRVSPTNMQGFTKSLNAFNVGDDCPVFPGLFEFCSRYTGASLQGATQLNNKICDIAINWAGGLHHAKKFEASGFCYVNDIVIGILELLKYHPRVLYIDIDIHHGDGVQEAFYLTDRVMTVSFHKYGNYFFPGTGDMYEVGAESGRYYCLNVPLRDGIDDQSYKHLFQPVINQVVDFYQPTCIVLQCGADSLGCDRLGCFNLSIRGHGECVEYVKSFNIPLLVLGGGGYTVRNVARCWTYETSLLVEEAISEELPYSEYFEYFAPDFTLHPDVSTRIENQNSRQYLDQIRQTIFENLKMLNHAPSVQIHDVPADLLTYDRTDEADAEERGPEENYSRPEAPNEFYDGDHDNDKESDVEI
T2 sequence (Q9Y618 whole entry partner): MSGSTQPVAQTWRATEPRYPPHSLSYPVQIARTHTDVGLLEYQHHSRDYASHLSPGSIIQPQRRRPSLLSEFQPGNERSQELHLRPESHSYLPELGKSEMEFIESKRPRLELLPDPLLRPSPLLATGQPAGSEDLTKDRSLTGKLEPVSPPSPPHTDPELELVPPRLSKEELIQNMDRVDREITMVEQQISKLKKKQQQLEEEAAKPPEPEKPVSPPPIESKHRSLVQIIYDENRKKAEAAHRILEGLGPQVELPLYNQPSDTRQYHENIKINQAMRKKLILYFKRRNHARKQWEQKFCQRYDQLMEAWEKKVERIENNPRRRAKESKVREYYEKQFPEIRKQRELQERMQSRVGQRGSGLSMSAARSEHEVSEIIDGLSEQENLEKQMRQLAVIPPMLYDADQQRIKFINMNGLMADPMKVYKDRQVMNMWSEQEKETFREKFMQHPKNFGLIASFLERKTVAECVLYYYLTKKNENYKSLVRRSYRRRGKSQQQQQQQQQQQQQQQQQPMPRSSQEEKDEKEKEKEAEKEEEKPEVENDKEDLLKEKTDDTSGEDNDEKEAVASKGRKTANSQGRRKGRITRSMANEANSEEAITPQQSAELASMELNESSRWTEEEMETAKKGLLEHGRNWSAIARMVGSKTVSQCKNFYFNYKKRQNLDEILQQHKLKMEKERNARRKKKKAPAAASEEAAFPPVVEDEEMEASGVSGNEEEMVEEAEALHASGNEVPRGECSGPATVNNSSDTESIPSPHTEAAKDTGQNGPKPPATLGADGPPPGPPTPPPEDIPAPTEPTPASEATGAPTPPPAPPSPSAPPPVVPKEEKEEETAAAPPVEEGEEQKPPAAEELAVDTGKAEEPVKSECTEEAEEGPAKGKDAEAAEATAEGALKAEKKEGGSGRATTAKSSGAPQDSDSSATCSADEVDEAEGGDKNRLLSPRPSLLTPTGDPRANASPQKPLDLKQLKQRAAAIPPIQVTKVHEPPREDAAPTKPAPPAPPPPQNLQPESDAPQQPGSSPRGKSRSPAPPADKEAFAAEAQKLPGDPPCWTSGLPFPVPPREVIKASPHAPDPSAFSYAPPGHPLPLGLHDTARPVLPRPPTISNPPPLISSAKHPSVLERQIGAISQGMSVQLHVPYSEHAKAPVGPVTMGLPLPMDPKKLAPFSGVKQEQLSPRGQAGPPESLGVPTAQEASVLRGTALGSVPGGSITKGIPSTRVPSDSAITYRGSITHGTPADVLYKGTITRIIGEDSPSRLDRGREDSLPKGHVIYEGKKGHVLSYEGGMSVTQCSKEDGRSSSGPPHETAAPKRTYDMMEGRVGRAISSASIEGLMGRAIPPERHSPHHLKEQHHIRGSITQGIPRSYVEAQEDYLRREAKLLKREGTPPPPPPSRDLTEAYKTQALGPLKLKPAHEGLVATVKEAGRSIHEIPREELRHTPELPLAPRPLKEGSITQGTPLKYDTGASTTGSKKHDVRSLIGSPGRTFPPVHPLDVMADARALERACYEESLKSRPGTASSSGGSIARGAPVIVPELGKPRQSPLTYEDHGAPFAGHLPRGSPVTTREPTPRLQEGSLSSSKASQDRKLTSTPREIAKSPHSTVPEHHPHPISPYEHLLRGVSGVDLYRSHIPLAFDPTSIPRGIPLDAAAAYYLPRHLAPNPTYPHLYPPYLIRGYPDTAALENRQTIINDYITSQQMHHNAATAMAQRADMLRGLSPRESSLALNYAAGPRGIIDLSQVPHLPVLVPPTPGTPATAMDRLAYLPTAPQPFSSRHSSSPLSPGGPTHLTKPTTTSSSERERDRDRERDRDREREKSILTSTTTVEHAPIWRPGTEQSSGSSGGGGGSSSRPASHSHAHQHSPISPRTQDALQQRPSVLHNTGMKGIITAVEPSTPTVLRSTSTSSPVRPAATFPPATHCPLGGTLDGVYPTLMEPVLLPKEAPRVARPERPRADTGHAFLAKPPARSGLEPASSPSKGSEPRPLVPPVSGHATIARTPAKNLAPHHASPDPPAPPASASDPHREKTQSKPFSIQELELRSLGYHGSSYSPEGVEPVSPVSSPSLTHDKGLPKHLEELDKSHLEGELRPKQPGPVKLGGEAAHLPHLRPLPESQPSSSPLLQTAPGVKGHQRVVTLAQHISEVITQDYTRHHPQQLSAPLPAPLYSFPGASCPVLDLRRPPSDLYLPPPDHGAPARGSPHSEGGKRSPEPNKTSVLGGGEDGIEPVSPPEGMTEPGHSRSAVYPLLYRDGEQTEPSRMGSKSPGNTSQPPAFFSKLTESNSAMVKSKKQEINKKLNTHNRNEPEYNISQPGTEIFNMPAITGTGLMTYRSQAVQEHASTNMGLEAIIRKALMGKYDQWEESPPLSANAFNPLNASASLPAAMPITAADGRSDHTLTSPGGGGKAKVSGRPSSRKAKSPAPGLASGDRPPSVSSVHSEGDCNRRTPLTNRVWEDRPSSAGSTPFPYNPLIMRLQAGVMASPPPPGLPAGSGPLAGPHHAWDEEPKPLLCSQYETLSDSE

As a reminder, the GI50 is the concentration that inhibits growth by half. The low end stands for greater sensitivity of the cells, the high end for lower sensitivity of the cells. Usually EC50 stands for the concentration at which the effect is half-maximal. Read a high EC50 as a less potent agent. For the compound `Cc1[nH]c(/C=C2\C(=O)Nc3ccc(F)cc32)c(C)c1C(=O)NCCNc1ccc(C(=O)Nc2ccccc2N)cn1` [Example 3, (Z)-N-(2-aminophenyl)-6-(2-(2-((5-fluoro-2-oxoindolin-3-ylidene)methyl)-3,5-dimethyl-1H-pyrrole-4-carboxamido)ethylamino)nicotinamide], the GI50 is over 1000 nM in the assay with PDGFRβ NIH-3T3 cells; over 60 µM in the assay on HCT-8; over 60 µM in the assay with Bel-7402; under 1 nM in the assay on HUVEC cells; over 60 µM in the assay on MDA-MB-231; over 60 µM in the assay on Jurkat. Moreover, the GI50 with HeLa was over 60 µM. Also, the EC50 worked out at 2.9 µM at HDAC7 and 1.9 µM at HDAC3. For the same compound, the “HDAC7 (Nur77 reporter assay) % Max Resp of CS055 at 3 μM” value (“HDAC7 (Nur77 reporter assay) % Max Resp” for short) at HDAC7 amounted to 113.5%. In addition, the “HDAC3 (GDF11 reporter assay) % Max Resp of CS055 at 3 μM” value (“HDAC3 (GDF11 reporter assay) % Max Resp” below) at HDAC3 is on record as 106.2%.
Take `Cc1[nH]c(/C=C2\C(=O)Nc3ccc(F)cc32)c(C)c1C(=O)NCCCCNc1ccc(C(=O)Nc2ccccc2N)cn1` [Example 9, (Z)-N-(2-aminophenyl)-6-(4-(2-((5-fluoro-2-oxoindolin-3-ylidene)methyl)-3,5-dimethyl-1H-pyrrole-4-carboxamido)butylamino)nicotinamide]: the GI50 with PDGFRβ NIH-3T3 cells was 105 nM; in the assay with HCT-8, over 60 µM; in the assay with Bel-7402, over 60 µM; with HUVEC cells, 12 nM; in the assay on MDA-MB-231 it was over 60 µM; in the assay with Jurkat it was over 60 µM. For the same compound, in the assay on HeLa, the GI50 is over 60 µM. Besides, the EC50 on HDAC7 stood at 13.2 µM; on HDAC3 it was 15.5 µM. The “HDAC7 (Nur77 reporter assay) % Max Resp” value at HDAC7 was determined as 88.7%. For the same compound, the “HDAC3 (GDF11 reporter assay) % Max Resp” value at HDAC3 is given as 81.4%.
In the case of `Cc1[nH]c(/C=N/N=C2\C(=O)Nc3ccc(F)cc32)c(C)c1C(=O)NCCNc1ccc(C(=O)Nc2ccccc2N)cn1` [Example 4, N-(2-aminophenyl)-6-(2-(2-(((5-fluoro-2-oxoindolin-3-ylidene)hydrazono)-methyl)-3,5-dimethyl-1H-pyrrole-4-carboxamido)ethylamino)nicotinamide], the GI50 with PDGFRβ NIH-3T3 cells was over 1000 nM; in the assay with HCT-8, over 60 µM; with Bel-7402 it was over 60 µM; with HUVEC cells, 1 nM; in the assay on MDA-MB-231 it was over 60 µM; with Jurkat it was over 60 µM. Further, the GI50 in the assay with HeLa is over 60 µM. Further, at HDAC7, the “HDAC7 (Nur77 reporter assay) % Max Resp” value was 3.9%. For the same compound, the “HDAC3 (GDF11 reporter assay) % Max Resp” value at HDAC3 was 2.4%.
As for `Cc1[nH]c(/C=N/N=C2\C(=O)Nc3ccc(F)cc32)c(C)c1C(=O)NCCCNc1ccc(C(=O)Nc2ccccc2N)cn1` [Example 7, N-(2-aminophenyl)-6-(3-(2-(((5-fluoro-2-oxoindolin-3-ylidene)hydrazono)-methyl)-3,5-dimethyl-1H-pyrrole-4-carboxamido)propylamino)nicotinamide], the GI50 was over 1000 nM in the assay with PDGFRβ NIH-3T3 cells; over 60 µM with HCT-8; over 60 µM in the assay with Bel-7402; 387 nM with HUVEC cells; over 60 µM in the assay on MDA-MB-231; over 60 µM in the assay on Jurkat. This compound showed a GI50 with HeLa of over 60 µM. Besides, the “HDAC7 (Nur77 reporter assay) % Max Resp” value at HDAC7 worked out at 12.4%. On HDAC3, the “HDAC3 (GDF11 reporter assay) % Max Resp” value is 6.3%.
With `Cc1[nH]c(/C=C2\C(=O)Nc3ccc(F)cc32)c(C)c1C(=O)NCCCCNc1ccc(C(=O)Nc2ccc(F)cc2N)cn1` [Example 19, (Z)-N-(2-amino-4-fluorophenyl)-6-(4-(2-((5-fluoro-2-oxoindolin-3-ylidene)-methyl)-3,5-dimethyl-1H-pyrrole-4-carboxamido)butylamino)nicotinamide], the concentration for 50% growth inhibition (GI50) in the assay with PDGFRβ NIH-3T3 cells is over 1000 nM; with HCT-8, over 60 µM; with Bel-7402, over 60 µM; in the assay on HUVEC cells, 81 nM; in the assay on MDA-MB-231, over 60 µM; with Jurkat it was over 60 µM. The compound further gave a GI50 with HeLa of over 60 µM. Besides, at HDAC7, the “HDAC7 (Nur77 reporter assay) % Max Resp” value came out at 6.0%. The “HDAC3 (GDF11 reporter assay) % Max Resp” value at HDAC3 amounted to 2.0%.
On to `Cc1[nH]c(/C=N/N=C2\C(=O)Nc3ccc(F)cc32)c(C)c1C(=O)NCCCNc1ccc(C(=O)Nc2ccc(F)cc2N)cn1` [Example 17, N-(2-amino-4-fluorophenyl)-6-(3-(2-(((5-fluoro-2-oxoindolin-3-ylidene)-hydrazono)methyl)-3,5-dimethyl-1H-pyrrole-4-carboxamido)propylamino)nicotinamide], for which the GI50 is over 1000 nM with PDGFRβ NIH-3T3 cells; over 60 µM in the assay on HCT-8; over 60 µM with Bel-7402; 460 nM in the assay with HUVEC cells; over 60 µM in the assay on MDA-MB-231; over 60 µM in the assay with Jurkat. In addition, the GI50 in the assay with HeLa was over 60 µM. Further, the “HDAC7 (Nur77 reporter assay) % Max Resp” value at HDAC7 was 3.5%. Moreover, the “HDAC3 (GDF11 reporter assay) % Max Resp” value at HDAC3 turned out to be 3.8%.
With `Cc1[nH]c(/C=N/N=C2\C(=O)Nc3ccc(F)cc32)c(C)c1C(=O)NCCCCNc1ccc(C(=O)Nc2ccc(F)cc2N)cn1` [Example 20, N-(2-amino-4-fluorophenyl)-6-(4-(2-(((5-fluoro-2-oxoindolin-3-ylidene)-hydrazono)methyl)-3,5-dimethyl-1H-pyrrole-4-carboxamido)butylamino)nicotinamide], the GI50 is over 1000 nM with PDGFRβ NIH-3T3 cells; over 60 µM with HCT-8; over 60 µM in the assay with Bel-7402; 330 nM with HUVEC cells; over 60 µM in the assay on MDA-MB-231; over 60 µM with Jurkat. The GI50 in the assay on HeLa was over 60 µM. Moreover, on HDAC7, the “HDAC7 (Nur77 reporter assay) % Max Resp” value is reported as 1.0%. The “HDAC3 (GDF11 reporter assay) % Max Resp” value on HDAC3 is reported as 4.1%.
On to `Cc1[nH]c(/C=N/N=C2\C(=O)Nc3ccc(F)cc32)c(C)c1C(=O)NCCCCNc1ccc(C(=O)Nc2ccccc2N)cn1` [Example 10, N-(2-aminophenyl)-6-(4-(2-(((5-fluoro-2-oxoindolin-3-ylidene)hydrazono)-methyl)-3,5-dimethyl-1H-pyrrole-4-carboxamido)butylamino)nicotinamide], for which the GI50 with PDGFRβ NIH-3T3 cells is over 1000 nM; with HCT-8, over 60 µM; in the assay on Bel-7402 it was over 60 µM; in the assay on HUVEC cells, 568 nM; in the assay with MDA-MB-231, over 60 µM; in the assay on Jurkat it was over 60 µM. This compound returned a GI50 with HeLa of over 60 µM. Besides, on HDAC7, the “HDAC7 (Nur77 reporter assay) % Max Resp” value is reported as 13.2%. Besides, at HDAC3, the “HDAC3 (GDF11 reporter assay) % Max Resp” value was determined as 8.3%.

These data come from patent publication US8158656B2, “2-indolinone derivatives as multi-target protein kinase inhibitors and histone deacetylase inhibitors” (Shenzhen Chipscreen Biosciences Ltd., priority 2008, dated 2012).
